From ChEMBL document CHEMBL5131445, “Optimization of a novel piperazinone series as potent selective peripheral covalent BTK inhibitors” (Bioorg Med Chem Lett, 2022)

Columns and labels:
[1] = biological target: Receptor tyrosine-protein kinase erbB-4 (Homo sapiens, UniProt Q15303); experiment: Binding affinity to ERBB4 (unknown origin) assessed as dissociation constant by KINOMEscan analysis
[2] = biological target: T1, Tyrosine-protein kinase JAK3 (Homo sapiens, UniProt P52333); experiment: Binding affinity to JAK3 (unknown origin) assessed as dissociation constant by KINOMEscan analysis
T1 sequence (P52333 whole entry): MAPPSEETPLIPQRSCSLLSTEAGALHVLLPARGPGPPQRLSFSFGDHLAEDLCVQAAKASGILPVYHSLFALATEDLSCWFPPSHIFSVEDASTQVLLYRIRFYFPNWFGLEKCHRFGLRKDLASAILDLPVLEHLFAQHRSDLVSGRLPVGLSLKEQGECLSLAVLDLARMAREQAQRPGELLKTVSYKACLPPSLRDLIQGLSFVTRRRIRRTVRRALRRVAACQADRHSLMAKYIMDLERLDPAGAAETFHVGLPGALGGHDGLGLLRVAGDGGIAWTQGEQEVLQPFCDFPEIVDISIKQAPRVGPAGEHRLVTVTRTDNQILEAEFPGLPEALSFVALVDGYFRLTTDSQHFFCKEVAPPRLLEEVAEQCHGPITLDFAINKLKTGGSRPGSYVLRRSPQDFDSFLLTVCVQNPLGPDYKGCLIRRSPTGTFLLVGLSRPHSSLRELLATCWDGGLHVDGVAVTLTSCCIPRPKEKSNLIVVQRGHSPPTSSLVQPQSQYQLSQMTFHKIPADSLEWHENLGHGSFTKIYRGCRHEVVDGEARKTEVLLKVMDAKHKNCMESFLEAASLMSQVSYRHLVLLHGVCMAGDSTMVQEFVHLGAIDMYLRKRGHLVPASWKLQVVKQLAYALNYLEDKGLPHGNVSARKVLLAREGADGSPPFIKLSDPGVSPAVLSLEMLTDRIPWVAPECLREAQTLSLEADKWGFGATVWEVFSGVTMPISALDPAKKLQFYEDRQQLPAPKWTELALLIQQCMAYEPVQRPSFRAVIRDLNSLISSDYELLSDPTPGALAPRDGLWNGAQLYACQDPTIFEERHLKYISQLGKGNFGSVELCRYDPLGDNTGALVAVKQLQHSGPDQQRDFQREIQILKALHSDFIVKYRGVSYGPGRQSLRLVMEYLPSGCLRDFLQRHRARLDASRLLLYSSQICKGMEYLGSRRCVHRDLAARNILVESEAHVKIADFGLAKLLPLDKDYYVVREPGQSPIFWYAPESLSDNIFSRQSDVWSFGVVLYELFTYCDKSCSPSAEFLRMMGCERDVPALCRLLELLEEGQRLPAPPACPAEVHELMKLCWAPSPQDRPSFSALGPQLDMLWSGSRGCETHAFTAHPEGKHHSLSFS

[3] = biological target: Epidermal growth factor receptor (Homo sapiens, UniProt P00533); experiment: Binding affinity to EGFR (unknown origin) assessed as dissociation constant by KINOMEscan analysis
Sequence of Epidermal growth factor receptor (P00533 whole entry): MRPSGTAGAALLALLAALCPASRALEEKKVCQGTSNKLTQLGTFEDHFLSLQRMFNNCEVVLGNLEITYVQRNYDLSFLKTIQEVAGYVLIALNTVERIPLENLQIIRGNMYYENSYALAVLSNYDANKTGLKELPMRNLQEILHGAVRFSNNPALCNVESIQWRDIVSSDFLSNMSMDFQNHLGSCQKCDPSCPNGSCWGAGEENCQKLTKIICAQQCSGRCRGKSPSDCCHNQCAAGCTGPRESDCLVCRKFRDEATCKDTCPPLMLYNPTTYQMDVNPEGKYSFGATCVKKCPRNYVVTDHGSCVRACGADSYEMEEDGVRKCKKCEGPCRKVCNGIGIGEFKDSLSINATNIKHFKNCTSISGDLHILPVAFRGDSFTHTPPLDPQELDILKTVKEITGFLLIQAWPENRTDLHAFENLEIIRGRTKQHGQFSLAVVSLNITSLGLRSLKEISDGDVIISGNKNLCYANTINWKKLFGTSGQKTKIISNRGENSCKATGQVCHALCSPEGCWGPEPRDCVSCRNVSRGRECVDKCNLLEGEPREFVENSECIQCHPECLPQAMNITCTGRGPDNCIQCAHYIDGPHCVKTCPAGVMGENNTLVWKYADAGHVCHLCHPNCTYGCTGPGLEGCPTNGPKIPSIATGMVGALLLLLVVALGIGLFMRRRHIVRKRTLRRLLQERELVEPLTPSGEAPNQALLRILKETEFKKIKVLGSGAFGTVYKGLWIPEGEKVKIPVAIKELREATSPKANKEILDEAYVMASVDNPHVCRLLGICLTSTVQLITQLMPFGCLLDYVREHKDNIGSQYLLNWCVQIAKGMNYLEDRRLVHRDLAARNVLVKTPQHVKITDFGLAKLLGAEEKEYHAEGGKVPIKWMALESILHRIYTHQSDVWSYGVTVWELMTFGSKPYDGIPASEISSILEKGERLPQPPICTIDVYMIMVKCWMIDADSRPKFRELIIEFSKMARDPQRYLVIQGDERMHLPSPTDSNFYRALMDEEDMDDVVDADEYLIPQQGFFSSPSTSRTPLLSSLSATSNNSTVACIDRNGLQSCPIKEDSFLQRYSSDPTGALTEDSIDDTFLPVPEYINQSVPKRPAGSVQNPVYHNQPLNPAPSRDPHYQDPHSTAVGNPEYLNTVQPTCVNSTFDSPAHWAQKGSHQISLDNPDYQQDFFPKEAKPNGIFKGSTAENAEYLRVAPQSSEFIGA

[4] = biological target: T2, Tyrosine-protein kinase Tec (Homo sapiens, UniProt P42680); experiment: Binding affinity to TEC (unknown origin) assessed as dissociation constant by KINOMEscan analysis
T2 sequence (P42680 whole entry): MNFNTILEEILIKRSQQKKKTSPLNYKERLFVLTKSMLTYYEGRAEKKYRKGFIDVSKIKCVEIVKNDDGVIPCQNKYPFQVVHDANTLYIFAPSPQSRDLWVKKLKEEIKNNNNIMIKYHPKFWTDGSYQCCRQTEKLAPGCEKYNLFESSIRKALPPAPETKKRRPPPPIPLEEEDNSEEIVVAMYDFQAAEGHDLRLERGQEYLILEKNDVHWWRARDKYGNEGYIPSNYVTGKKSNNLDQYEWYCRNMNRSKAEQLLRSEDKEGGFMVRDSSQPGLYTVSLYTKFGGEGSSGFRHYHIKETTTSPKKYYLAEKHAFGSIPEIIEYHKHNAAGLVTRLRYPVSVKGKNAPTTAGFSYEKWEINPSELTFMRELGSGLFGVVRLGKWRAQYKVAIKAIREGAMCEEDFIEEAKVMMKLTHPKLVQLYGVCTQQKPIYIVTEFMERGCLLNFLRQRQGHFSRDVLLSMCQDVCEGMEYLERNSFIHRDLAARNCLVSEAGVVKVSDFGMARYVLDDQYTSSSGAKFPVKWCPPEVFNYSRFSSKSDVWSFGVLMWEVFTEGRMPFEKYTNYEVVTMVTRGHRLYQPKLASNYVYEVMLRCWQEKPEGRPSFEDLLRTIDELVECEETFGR

[5] = biological target: Receptor tyrosine-protein kinase erbB-2 (Homo sapiens, UniProt P04626); experiment: Binding affinity to ERBB2 (unknown origin) assessed as dissociation constant by KINOMEscan analysis
Sequence of Receptor tyrosine-protein kinase erbB-2 (P04626 whole entry): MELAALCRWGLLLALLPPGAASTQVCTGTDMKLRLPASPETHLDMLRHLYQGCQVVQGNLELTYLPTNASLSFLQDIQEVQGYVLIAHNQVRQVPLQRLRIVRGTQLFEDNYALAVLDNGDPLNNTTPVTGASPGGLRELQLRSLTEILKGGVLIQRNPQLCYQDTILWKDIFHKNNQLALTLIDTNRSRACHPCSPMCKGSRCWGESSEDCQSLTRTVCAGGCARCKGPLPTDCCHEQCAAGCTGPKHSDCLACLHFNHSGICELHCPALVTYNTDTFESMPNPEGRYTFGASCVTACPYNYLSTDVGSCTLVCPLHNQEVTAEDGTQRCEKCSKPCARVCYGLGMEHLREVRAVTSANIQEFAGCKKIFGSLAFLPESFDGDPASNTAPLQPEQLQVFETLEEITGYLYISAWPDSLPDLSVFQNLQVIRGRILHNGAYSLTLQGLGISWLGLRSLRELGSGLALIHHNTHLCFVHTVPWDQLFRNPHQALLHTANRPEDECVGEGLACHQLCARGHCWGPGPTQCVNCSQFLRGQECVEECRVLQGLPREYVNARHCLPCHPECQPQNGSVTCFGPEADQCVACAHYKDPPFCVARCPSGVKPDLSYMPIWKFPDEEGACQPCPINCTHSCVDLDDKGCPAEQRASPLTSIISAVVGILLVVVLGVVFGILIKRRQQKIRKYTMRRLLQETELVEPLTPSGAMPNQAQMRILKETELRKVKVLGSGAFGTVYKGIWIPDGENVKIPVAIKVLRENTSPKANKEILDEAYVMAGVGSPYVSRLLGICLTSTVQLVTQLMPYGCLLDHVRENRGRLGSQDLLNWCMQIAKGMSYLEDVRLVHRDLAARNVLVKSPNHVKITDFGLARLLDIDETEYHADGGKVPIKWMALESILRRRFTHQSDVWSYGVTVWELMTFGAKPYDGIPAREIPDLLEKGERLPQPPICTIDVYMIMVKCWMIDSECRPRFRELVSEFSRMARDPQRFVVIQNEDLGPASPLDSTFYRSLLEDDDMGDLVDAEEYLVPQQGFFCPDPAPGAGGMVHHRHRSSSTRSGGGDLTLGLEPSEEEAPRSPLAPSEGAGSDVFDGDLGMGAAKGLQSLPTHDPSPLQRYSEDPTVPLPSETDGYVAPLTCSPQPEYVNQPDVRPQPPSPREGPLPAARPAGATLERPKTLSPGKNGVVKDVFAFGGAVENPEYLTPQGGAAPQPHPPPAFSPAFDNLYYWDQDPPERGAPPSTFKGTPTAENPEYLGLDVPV

[6] = biological target: T3, Tyrosine-protein kinase ITK/TSK (Homo sapiens, UniProt Q08881); experiment: Binding affinity to ITK (unknown origin) assessed as dissociation constant by KINOMEscan analysis
T3 sequence (Q08881 whole entry): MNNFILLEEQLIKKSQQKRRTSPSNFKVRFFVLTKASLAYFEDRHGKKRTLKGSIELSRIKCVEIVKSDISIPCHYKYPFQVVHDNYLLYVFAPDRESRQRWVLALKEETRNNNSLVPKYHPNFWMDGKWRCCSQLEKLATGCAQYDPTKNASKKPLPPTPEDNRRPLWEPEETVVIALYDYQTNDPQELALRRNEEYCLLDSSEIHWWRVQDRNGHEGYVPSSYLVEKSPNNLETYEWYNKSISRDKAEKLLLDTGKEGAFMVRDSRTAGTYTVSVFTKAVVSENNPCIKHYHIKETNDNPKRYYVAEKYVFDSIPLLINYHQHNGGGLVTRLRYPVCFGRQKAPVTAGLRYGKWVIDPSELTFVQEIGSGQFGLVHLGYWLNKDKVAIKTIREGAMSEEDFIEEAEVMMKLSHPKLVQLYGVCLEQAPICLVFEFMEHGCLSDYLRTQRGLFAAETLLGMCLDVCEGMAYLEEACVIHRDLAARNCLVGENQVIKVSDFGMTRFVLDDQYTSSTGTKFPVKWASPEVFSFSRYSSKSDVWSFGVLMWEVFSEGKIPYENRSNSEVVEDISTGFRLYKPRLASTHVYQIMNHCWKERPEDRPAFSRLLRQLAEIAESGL

[7] = biological target: T4, Tyrosine-protein kinase TXK (Homo sapiens, UniProt P42681); experiment: Binding affinity to TXK (unknown origin) assessed as dissociation constant by KINOMEscan analysis
T4 sequence (P42681 whole entry): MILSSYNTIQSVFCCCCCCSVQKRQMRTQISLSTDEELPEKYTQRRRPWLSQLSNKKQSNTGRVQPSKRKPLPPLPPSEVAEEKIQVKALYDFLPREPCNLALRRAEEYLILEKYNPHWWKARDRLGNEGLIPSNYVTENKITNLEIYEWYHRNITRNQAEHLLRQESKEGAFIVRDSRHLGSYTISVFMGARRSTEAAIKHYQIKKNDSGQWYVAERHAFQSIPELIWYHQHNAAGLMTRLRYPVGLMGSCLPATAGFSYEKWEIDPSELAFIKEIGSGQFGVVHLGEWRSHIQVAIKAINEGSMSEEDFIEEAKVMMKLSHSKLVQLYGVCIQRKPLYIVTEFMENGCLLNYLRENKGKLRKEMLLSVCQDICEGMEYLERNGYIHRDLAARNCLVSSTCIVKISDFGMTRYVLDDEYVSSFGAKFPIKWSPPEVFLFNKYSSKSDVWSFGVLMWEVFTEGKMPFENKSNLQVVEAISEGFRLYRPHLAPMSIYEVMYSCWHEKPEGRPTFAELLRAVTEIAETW

[8] = biological target: Tyrosine-protein kinase Blk (Homo sapiens, UniProt P51451); experiment: Binding affinity to BLK (unknown origin) assessed as dissociation constant by KINOMEscan analysis
Sequence of Tyrosine-protein kinase Blk (P51451 whole entry): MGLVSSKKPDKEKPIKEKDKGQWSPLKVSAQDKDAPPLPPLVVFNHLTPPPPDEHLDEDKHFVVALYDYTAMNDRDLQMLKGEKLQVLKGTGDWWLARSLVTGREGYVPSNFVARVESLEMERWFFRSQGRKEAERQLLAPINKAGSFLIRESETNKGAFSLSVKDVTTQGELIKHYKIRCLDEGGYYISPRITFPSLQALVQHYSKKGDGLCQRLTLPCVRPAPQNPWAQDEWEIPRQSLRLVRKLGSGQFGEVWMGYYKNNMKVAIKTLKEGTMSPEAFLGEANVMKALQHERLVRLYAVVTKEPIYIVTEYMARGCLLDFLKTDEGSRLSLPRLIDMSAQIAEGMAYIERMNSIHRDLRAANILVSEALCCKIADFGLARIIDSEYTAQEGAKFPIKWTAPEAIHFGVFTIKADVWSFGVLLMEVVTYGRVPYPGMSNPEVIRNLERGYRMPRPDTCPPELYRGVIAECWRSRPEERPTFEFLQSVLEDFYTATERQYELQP

Sequence of Receptor tyrosine-protein kinase erbB-4 (Q15303 whole entry): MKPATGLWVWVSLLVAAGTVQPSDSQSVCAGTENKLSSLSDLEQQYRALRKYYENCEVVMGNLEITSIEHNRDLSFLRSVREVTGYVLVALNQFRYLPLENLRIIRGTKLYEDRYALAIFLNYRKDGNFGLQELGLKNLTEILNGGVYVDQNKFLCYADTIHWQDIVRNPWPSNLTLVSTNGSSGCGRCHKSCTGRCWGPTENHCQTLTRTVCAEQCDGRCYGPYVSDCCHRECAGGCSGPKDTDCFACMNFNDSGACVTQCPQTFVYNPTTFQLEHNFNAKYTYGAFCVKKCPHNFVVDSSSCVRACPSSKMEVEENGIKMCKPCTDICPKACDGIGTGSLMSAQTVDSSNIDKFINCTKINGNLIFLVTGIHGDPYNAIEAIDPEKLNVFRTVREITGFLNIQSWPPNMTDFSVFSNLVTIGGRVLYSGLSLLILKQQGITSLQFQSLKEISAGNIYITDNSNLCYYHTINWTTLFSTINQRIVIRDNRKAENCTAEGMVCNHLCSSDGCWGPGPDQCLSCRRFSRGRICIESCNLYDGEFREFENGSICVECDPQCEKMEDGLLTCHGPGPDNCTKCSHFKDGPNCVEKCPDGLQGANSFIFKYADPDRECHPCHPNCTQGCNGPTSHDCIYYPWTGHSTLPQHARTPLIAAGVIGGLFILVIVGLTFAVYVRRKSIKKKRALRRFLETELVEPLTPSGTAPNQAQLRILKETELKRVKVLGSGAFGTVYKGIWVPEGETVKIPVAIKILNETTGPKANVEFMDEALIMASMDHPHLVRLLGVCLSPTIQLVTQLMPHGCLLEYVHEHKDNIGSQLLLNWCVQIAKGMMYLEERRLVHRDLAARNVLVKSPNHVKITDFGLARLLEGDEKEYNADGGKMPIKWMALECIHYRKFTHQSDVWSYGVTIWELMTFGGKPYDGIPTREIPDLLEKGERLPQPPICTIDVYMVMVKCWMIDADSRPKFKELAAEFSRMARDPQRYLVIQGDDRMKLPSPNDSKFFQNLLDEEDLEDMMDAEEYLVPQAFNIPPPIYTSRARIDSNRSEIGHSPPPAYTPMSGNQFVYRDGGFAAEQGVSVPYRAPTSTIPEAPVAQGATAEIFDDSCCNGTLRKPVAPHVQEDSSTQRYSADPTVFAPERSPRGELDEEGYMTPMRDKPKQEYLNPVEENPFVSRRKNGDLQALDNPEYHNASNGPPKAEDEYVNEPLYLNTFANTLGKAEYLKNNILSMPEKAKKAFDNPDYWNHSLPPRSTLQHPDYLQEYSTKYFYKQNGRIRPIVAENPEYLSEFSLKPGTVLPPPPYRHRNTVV

Kd [1]: 30 µM | Kd [2]: 23 µM | Kd [3]: 30 µM | Kd [4]: 0.21 µM | Kd [5]: 30 µM | Kd [6]: 0.19 µM | Kd [7]: 2 µM | Kd [8]: 4.1 µM
Structure (SMILES): C[C@@H]1CN(C2COC2)CCN1c1ccc(Nc2cc(-c3ccnc(N4CCn5c(cc6c5CC(C)(C)C6)C4=O)c3CO)cn(C)c2=O)nc1
